# Laboratory results from the supplement of paper PMC10307832.
# Tests used:
# Assay in all cases: relative viability (nuclei count vs DMSO), 5 days (fraction); higher = more cells survive
# [1] = compound: C1CNCCC1C2=CC(=NN2)C3=CC=NC=C3 + CCNC(=O)c1noc(-c2cc(C(C)C)c(O)cc2O)c1-c1ccc(CN2CCOCC2)cc1 [Luminespib] (partner 0.01 µM)
# Procedure, shortened: (§1)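 Lung cancer cell lines in 1536-well plates got either a single drug or a fixed anchor-drug dose together with five library-drug doses (not always all listed) in √10 steps, by pin tool, on the day after seeding. Nuclei were counted after 5 days, and relative viability is the treated-to-vehicle ratio of nuclei counts. Values are medians of duplicate plates.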
# [2] = compound: C[C@@H](N)c1ccc(C(=O)Nc2ccnc3[nH]ccc23)cc1 + COc1cccc2cc(-c3nc([C@H]4CC[C@H](C(=O)O)CC4)n4ncnc(N)c34)[nH]c12 [OSI-027] (partner 0.5 µM)
# Procedure, shortened: as §1
# [3] = compound: C1CNCCC1C2=CC(=NN2)C3=CC=NC=C3 + Cc1nc(Nc2ncc(C(=O)Nc3c(C)cccc3Cl)s2)cc(N2CCN(CCO)CC2)n1 [Dasatinib] (partner 0.075 µM)
# Procedure, shortened: as §1
# [4] = compound: O[C@H]1CC[C@H](Nc2ncc3nc(Nc4c(F)cc(F)cc4F)n([C@H]4CCOC4)c3n2)CC1 [Tanzisertib] + O=C(CCCCCCC(=O)Nc1ccccc1)NO [Vorinostat] (partner 1 µM)
# Procedure, shortened: as §1
Cell Line,relative viability ([1]; first compound 0.08 µM),relative viability ([1]; first compound 0.8 µM),relative viability ([1]; first compound 2.53 µM),relative viability ([1]; first compound 8 µM),relative viability ([2]; first compound 0.04 µM),relative viability ([2]; first compound 0.1265 µM),relative viability ([2]; first compound 0.4 µM),relative viability ([2]; first compound 1.265 µM),relative viability ([2]; first compound 4 µM),relative viability ([3]; first compound 0.08 µM),relative viability ([3]; first compound 0.8 µM),relative viability ([3]; first compound 2.53 µM),relative viability ([3]; first compound 8 µM),relative viability ([4]; first compound 0.08 µM),relative viability ([4]; first compound 0.253 µM),relative viability ([4]; first compound 0.8 µM),relative viability ([4]; first compound 2.53 µM),relative viability ([4]; first compound 8 µM)
201T,1.03,1.04,1.13,1.01,0.844,0.835,0.961,1.01,0.856,0.62,0.561,0.602,0.602,1.03,1.01,0.996,0.988,0.764
A-427,0.789,1.2,0.908,0.92,0.407,0.392,0.509,–,0.466,0.639,0.751,0.731,0.703,0.897,0.833,0.874,0.884,0.77
ABC-1,0.517,0.69,1.02,0.663,0.502,0.603,0.559,–,0.511,0.55,0.563,0.652,0.497,1.22,1.58,1.15,1.1,0.786
BEN,0.215,0.282,0.341,0.344,0.293,0.307,0.3,0.314,0.284,0.266,0.286,0.339,0.326,0.593,0.583,0.613,0.588,0.611
CAL-12T,0.606,0.734,0.457,0.819,1.19,0.784,0.928,0.3,0.78,0.49,0.49,0.625,0.475,0.896,0.663,0.909,0.893,0.755
COR-L23,0.481,0.838,0.64,0.671,0.775,0.838,0.755,0.748,0.669,0.532,0.417,0.518,0.469,0.438,0.504,0.479,0.494,0.537
COR-L 105,0.688,0.648,0.921,0.962,0.719,0.943,0.852,0.517,0.563,0.332,0.364,0.382,0.368,0.834,0.893,0.828,0.903,1
ChaGo-K-1,0.512,0.555,0.709,0.568,0.496,0.487,0.487,0.297,0.564,0.58,0.657,0.643,0.627,0.81,0.801,0.71,0.779,0.57
EKVX,0.855,0.609,0.987,0.8,0.609,0.798,0.832,0.761,0.727,0.576,0.565,0.645,0.525,0.711,0.691,0.852,0.741,0.676
EMC-BAC-2,0.882,1.16,1.28,1.14,0.294,0.399,0.299,0.346,0.279,0.261,0.349,0.352,0.395,0.46,0.849,0.464,0.5,0.217
EPLC-272H,0.281,0.22,0.406,0.206,0.285,0.308,0.308,0.244,0.293,0.392,0.348,0.393,0.415,0.515,0.35,0.487,0.483,0.358
H3255,0.755,0.955,1.15,1.08,0.624,0.727,0.745,0.725,0.783,0.352,0.378,0.369,0.488,0.818,0.938,0.787,0.721,0.345
HARA,0.647,0.72,0.793,0.687,–,0.437,0.638,–,0.481,0.217,0.3,0.196,0.187,0.558,0.556,–,0.385,0.585
HCC-15,0.324,0.347,0.345,0.205,0.695,0.632,0.681,–,0.619,0.556,0.646,0.639,0.609,0.91,0.766,0.857,0.807,0.923
HCC-44,0.923,1.58,1.32,1.06,0.37,0.433,0.644,0.19,0.482,–,–,–,–,1.22,1.16,1.19,1.19,1.25
HCC-78,–,–,–,–,0.54,0.389,0.476,0.388,0.544,0.352,0.257,0.356,0.369,0.505,0.455,0.461,0.403,0.447
HCC-366,–,–,–,–,0.787,0.847,0.993,–,1.08,0.405,0.898,0.618,0.594,–,0.361,0.386,0.428,0.309
HCC-827,0.571,0.522,0.749,0.57,0.849,0.873,0.844,0.922,0.764,0.366,0.228,0.302,0.308,0.747,0.871,0.725,0.853,0.357
HOP-62,0.999,1.06,0.837,0.847,0.819,0.76,0.852,0.745,0.821,0.691,0.635,0.703,0.648,0.632,0.599,0.679,0.768,0.605
IA-LM,–,–,–,–,–,–,–,–,–,–,–,–,–,1.2,0.899,0.912,0.939,0.822

Cell Line,relative viability ([1]; first compound 0.08 µM),relative viability ([1]; first compound 0.8 µM),relative viability ([1]; first compound 2.53 µM),relative viability ([1]; first compound 8 µM),relative viability ([2]; first compound 0.04 µM),relative viability ([2]; first compound 0.1265 µM),relative viability ([2]; first compound 0.4 µM),relative viability ([2]; first compound 1.265 µM),relative viability ([2]; first compound 4 µM),relative viability ([3]; first compound 0.08 µM),relative viability ([3]; first compound 0.8 µM),relative viability ([3]; first compound 2.53 µM),relative viability ([3]; first compound 8 µM),relative viability ([4]; first compound 0.08 µM),relative viability ([4]; first compound 0.253 µM),relative viability ([4]; first compound 0.8 µM),relative viability ([4]; first compound 2.53 µM),relative viability ([4]; first compound 8 µM)
LC-2-ad,–,1.13,1.13,0.987,0.763,0.893,0.858,–,0.625,–,0.647,0.761,0.739,0.731,0.69,0.702,0.715,0.493
LCLC-97TM1,0.734,0.916,0.962,0.713,0.69,0.587,0.625,0.384,0.701,0.875,0.784,0.923,0.758,0.862,0.749,0.638,0.86,0.169
LCLC-103H,1.06,0.909,0.982,0.961,0.416,0.453,0.438,0.463,0.432,0.462,0.505,0.396,0.537,0.896,0.773,0.801,0.783,0.653
LK-2,0.176,0.19,0.214,0.226,0.295,0.176,0.212,–,0.249,0.236,0.388,0.275,0.482,0.365,0.356,0.282,0.25,0.278
LOU-NH91,0.368,0.339,0.334,0.399,0.626,0.667,0.688,0.601,0.591,0.527,0.572,0.624,0.545,0.948,0.924,1,0.974,0.418
LU99A,0.3,0.235,0.248,0.252,–,0.328,0.292,0.277,0.316,0.522,0.744,0.836,0.645,0.565,0.447,0.51,0.559,0.519
LXF-289,0.804,0.589,0.69,0.705,0.639,0.821,0.986,0.709,0.763,0.267,0.184,0.228,0.185,0.835,0.766,0.88,0.818,0.767
NCI-H23,–,0.212,0.213,0.211,0.603,0.577,0.592,–,0.674,0.826,0.808,0.805,0.908,0.542,0.596,0.498,0.49,0.474
NCI-H322M,0.677,0.944,0.904,1.04,0.656,0.586,0.63,–,0.706,0.24,0.228,0.247,0.282,0.863,0.961,0.875,0.912,0.75
NCI-H358,0.478,0.279,0.369,0.388,0.816,1.07,0.855,0.794,0.701,0.118,0.16,0.149,0.143,0.764,0.791,0.75,0.65,0.56
NCI-H441,0.332,0.312,0.309,0.444,0.631,0.807,0.62,–,0.701,0.465,0.673,0.797,0.576,0.895,0.854,0.731,0.72,0.804
NCI-H460,0.0398,0.0336,0.0427,0.0305,0.748,0.602,0.746,0.633,0.897,0.387,0.454,0.537,0.529,0.864,0.89,0.744,0.729,0.699
NCI-H520,0.213,0.196,0.214,0.177,0.287,0.333,0.329,0.334,0.335,0.17,0.163,0.187,0.206,0.866,0.749,0.789,0.724,0.73
NCI-H522,1.06,1.4,0.948,1.21,0.657,0.67,0.78,0.764,0.737,0.841,0.869,0.896,0.967,0.913,0.902,0.773,0.762,0.836
NCI-H596,0.967,1.07,1.11,1.16,0.643,0.592,0.747,–,0.709,0.602,0.562,0.654,0.664,0.533,0.655,0.619,0.711,0.589
NCI-H1563,0.536,0.497,0.518,0.494,0.796,0.767,0.679,0.816,0.846,0.451,0.465,0.486,0.485,–,–,–,–,–
NCI-H1623,0.401,0.5,0.564,0.551,0.559,0.418,0.502,0.469,0.503,0.574,0.38,0.557,0.563,–,–,–,–,–
NCI-H1648,–,–,–,–,0.265,0.301,0.267,0.289,0.346,–,–,–,–,0.553,0.36,0.398,0.571,0.391
NCI-H1792,0.43,0.414,0.636,0.483,0.796,0.77,0.736,0.869,0.65,0.774,0.836,0.781,0.854,–,–,–,–,–
